Assays:
Format in all cases: binding
[1] = tested on: SARS-COV-2 RNA G4, position 25951 (ORF3a protein); assay: CD thermal melting analysis, G4 No. 20; details: G4 No. 20, position 25951, ORF3a protein; 15 μM RNA G4, 30 μM compound
Description: (§1) For melting, the samples were heated at 25 to 95° C. at 2° C./min with a data pitch of 0.5° C. CD melting analyses were performed with and without G4-binding compounds. The ratio of RNA: G4-binding compound was set to a molar ratio of 1:2. 15 μM RNA G4 was treated with 30 μM G4-binding compound and incubated at room temperature in a buffer comprising 10 mM Tris-HCl (pH 7.5) and 100 mM KCl for 30 minutes. Ellipticity was measured at 265 nm. Thereafter, data were normalized and plotted in OriginPro 2017 to calculate Tm values.
(§2) In addition, 15 μM RNA G4 was treated with 30 μM compound and incubated, and a CD thermal melting curve of RNA G4 (15 μM) was obtained in the presence or absence of the G4-binding compound. Furthermore, the effect of G4-binding compounds on the stability of SARS-COV-2 G4 was confirmed by measuring the difference in melting temperature (ΔTm). The results are illustrated in FIGS. 6A and 6B.

[2] = tested on: SARS-COV-2 RNA G4, position 28903 (Nucleocapsid protein); assay: CD thermal melting analysis, G4 No. 23; details: G4 No. 23, position 28903, Nucleocapsid protein; 15 μM RNA G4, 30 μM compound
Description: as §1, §2

[3] = tested on: SARS-COV-2 RNA G4, position 25197 (Surface glycoprotein); assay: CD thermal melting analysis, G4 No. 19; details: G4 No. 19, position 25197, Surface glycoprotein; 15 μM RNA G4, 30 μM compound
Description: as §1, §2

[4] = tested on: SARS-COV-2 RNA G4, position 8687 (NsP4); assay: CD thermal melting analysis, G4 No. 9; details: G4 No. 9, position 8687, NsP4; 15 μM RNA G4, 30 μM compound
Description: as §1, §2

[5] = tested on: SARS-COV-2 RNA G4, position 4162 (NsP3); assay: CD thermal melting analysis, G4 No. 7; details: G4 No. 7, position 4162, NsP3; 15 μM RNA G4, 30 μM compound
Description: as §1, §2

[6] = tested on: SARS-COV-2 RNA G4, position 24215 (Surface glycoprotein); assay: CD thermal melting analysis, G4 No. 17; details: G4 No. 17, position 24215, Surface glycoprotein; 15 μM RNA G4, 30 μM compound
Description: as §1, §2

[7] = tested on: SARS-COV-2 RNA G4, position 353 (NsP1); assay: CD thermal melting analysis, G4 No. 1; details: G4 No. 1, position 353, NsP1; 15 μM RNA G4, 30 μM compound
Description: as §1, §2

[8] = tested on: SARS-COV-2 RNA G4, position 14947 (NsP12); assay: CD thermal melting analysis, G4 No. 12; details: G4 No. 12, position 14947, NsP12; 15 μM RNA G4, 30 μM compound
Description: as §1, §2

[9] = tested on: SARS-COV-2 RNA G4, position 644 (NsP1); assay: CD thermal melting analysis, G4 No. 2; details: G4 No. 2, position 644, NsP1; 15 μM RNA G4, 30 μM compound
Description: as §1, §2

[10] = tested on: SARS-COV-2 RNA G4, position 15448 (NsP12); assay: CD thermal melting analysis, G4 No. 14; details: G4 No. 14, position 15448, NsP12; 15 μM RNA G4, 30 μM compound
Description: as §1, §2

[11] = tested on: SARS-COV-2 RNA G4, position 22316 (Surface glycoprotein); assay: CD thermal melting analysis, G4 No. 16; details: G4 No. 16, position 22316, Surface glycoprotein; 15 μM RNA G4, 30 μM compound
Description: as §1, §2

[12] = tested on: SARS-COV-2 RNA G4, position 3467 (NsP3); assay: CD thermal melting analysis, G4 No. 6; details: G4 No. 6, position 3467, NsP3; 15 μM RNA G4, 30 μM compound
Description: as §1, §2

[13] = tested on: SARS-COV-2 RNA G4, position 24268 (Surface glycoprotein); assay: CD thermal melting analysis, G4 No. 18; details: G4 No. 18, position 24268, Surface glycoprotein; 15 μM RNA G4, 30 μM compound
Description: as §1, §2

[14] = tested on: SARS-COV-2 RNA G4, position 4261 (NsP3); assay: CD thermal melting analysis, G4 No. 8; details: G4 No. 8, position 4261, NsP3; 15 μM RNA G4, 30 μM compound
Description: as §1, §2

[15] = tested on: SARS-COV-2 RNA G4, position 13385 (NsP10); assay: CD thermal melting analysis, G4 No. 11; details: G4 No. 11, position 13385, NsP10; 15 μM RNA G4, 30 μM compound
Description: as §1, §2

[16] = tested on: SARS-COV-2 RNA G4, position 10261 (NsP5); assay: CD thermal melting analysis, G4 No. 10; details: G4 No. 10, position 10261, NsP5; 15 μM RNA G4, 30 μM compound
Description: as §1, §2

[17] = tested on: SARS-COV-2 RNA G4, position 1463 (NsP2); assay: CD thermal melting analysis, G4 No. 3; details: G4 No. 3, position 1463, NsP2; 15 μM RNA G4, 30 μM compound
Description: as §1, §2

[18] = tested on: 25 G4s predicted for SARS-COV-2; assay: CD thermal melting analysis, comparison of ΔTm over all G4s; details: for effect on stability of SARS-COV-2 G4 (ΔTm), in words: 15 μM RNA G4, 30 μM compound, FIGS. 6A and 6B; for number of G4s Destabilized: of the 25 SARS-COV-2 G4s
[19] = tested on: SARS-COV-2 RNA G4, position 15208 (NsP12); assay: CD thermal melting analysis, G4 No. 13; details: G4 No. 13, position 15208, NsP12; 15 μM RNA G4, 30 μM compound
Description: as §1, §2

SMILES | Tm in ° C. with compound [1] | ΔTm [1] | Tm in ° C. with compound [2] | ΔTm [2] | Tm in ° C. with compound [3] | ΔTm [3] | Tm in ° C. with compound [4] | ΔTm [4] | Tm in ° C. with compound [5] | ΔTm [5] | Tm in ° C. with compound [6] | ΔTm [6] | Tm in ° C. with compound [7] | ΔTm [7] | Tm in ° C. with compound [8] | ΔTm [8] | Tm in ° C. with compound [9] | ΔTm [9] | Tm in ° C. with compound [10] | ΔTm [10] | further results
CN1CCC[C@H]1CCNC(=O)c1cn2c3c(c(N4CCC(c5cnccn5)C4)c(F)cc3c1=O)Oc1cc3ccccc3cc1-2 (stereo partly drawn) [CX-3543, 15-fluoro-N-[2-[(2S)-1-methylpyrrolidin-2-yl]ethyl]-18-oxo-14-(3-pyrazin-2-ylpyrrolidin-1-yl)-12-oxa-1-azapentacyclo [11.7.1.0^2,11.0^4,9.0^17,21]henicosa-2,4,6,8, 10, 13 (21), 14,16,19-nonaene-19-carboxamide] | 53.87 °C | 5.13 °C | 63.45 °C | 6.34 °C | 66.57 °C | −4.62 °C | 49.83 °C | 2.97 °C | 58.94 °C | 2.05 °C | 57.16 °C | 1.74 °C | 72.64 °C | 1.05 °C | 58.11 °C | 0.9 °C | 53.32 °C | 5.59 °C | 58.58 °C | 5.96 °C | Tm in ° C. with compound [11]: 49.56 °C; ΔTm [11]: 1.28 °C; Tm in ° C. with compound [12]: 63.54 °C; ΔTm [12]: −2.01 °C; Tm in ° C. with compound [13]: 40.42 °C; ΔTm [13]: −0.05 °C; Tm in ° C. with compound [14]: 63.89 °C; ΔTm [14]: 13.58 °C; Tm in ° C. with compound [15]: 52.87 °C; ΔTm [15]: 7.27 °C; Tm in ° C. with compound [16]: 50.24 °C; ΔTm [16]: 2.35 °C; Tm in ° C. with compound [17]: 66.55 °C; ΔTm [17]: 11.03 °C; effect on stability of SARS-COV-2 G4 (ΔTm), in words [18]: did not show any noticeable change; number of G4s Destabilized [18]: 6; Tm in ° C. with compound [19]: 63.87 °C; ΔTm [19]: 6.7 °C
NCCOc1cc(C(=O)Nc2cc(OCCN)c3ccccc3n2)nc(C(=O)Nc2cc(OCCN)c3ccccc3n2)c1 [PDS, 4-(2-aminoethoxy)-N2,N6-bis(4-(2-aminoethoxy)quinolin-2-yl)pyridine-2,6-dicarboxamide] | 92.26 °C | 43.52 °C | 60.46 °C | 3.35 °C | 68.63 °C | −2.56 °C | 84.44 °C | 37.58 °C | 56.03 °C | −0.86 °C | 62.93 °C | 7.51 °C | 87.66 °C | 16.07 °C | 82.16 °C | 24.95 °C | 70.59 °C | 22.86 °C | 56.5 °C | 3.88 °C | Tm in ° C. with compound [11]: 55.62 °C; ΔTm [11]: 7.34 °C; Tm in ° C. with compound [12]: 88.65 °C; ΔTm [12]: 23.1 °C; Tm in ° C. with compound [13]: 46.11 °C; ΔTm [13]: 5.64 °C; Tm in ° C. with compound [14]: 79.18 °C; ΔTm [14]: 28.87 °C; Tm in ° C. with compound [15]: 63.07 °C; ΔTm [15]: 17.47 °C; Tm in ° C. with compound [16]: 60.66 °C; ΔTm [16]: 12.77 °C; Tm in ° C. with compound [17]: 60.04 °C; ΔTm [17]: 4.52 °C; effect on stability of SARS-COV-2 G4 (ΔTm), in words [18]: significantly stabilized most G4s; proportion of the G4s with ΔTm>20° C. ([18]; among the 25 G4s predicted for SARS-COV-2): 36%; number of G4s Destabilized [18]: 2; Tm in ° C. with compound [19]: 60.16 °C; ΔTm [19]: 2.99 °C
